We go through 13 compounds from patent publication US9403840B2, “(Poly) aminoacetamide derivatives of epipodophyllotoxin their process of preparation and their applications in therapeutics as anticancer agents” (PIERRE FABRE MEDICAMENT, priority 2004, dated 2016).

Values after ≈ are worked out from the molar mass of the structure shown. Values joined by “and” are separate entries in the source; they are usually repeats but may differ in a detail not shown here. Equal entries are not always repeated. Structures can show the parent of a compound that is named as a salt.

One may read the melting point as the temperature, or range, at which the solid turns liquid. By IC50 is commonly meant the midpoint of a concentration-inhibition curve. A high value points to weaker potency in that assay. One may read the solubility as the concentration that dissolves in the medium under given conditions. Low readings indicate a poorly soluble substance, high ones a readily soluble substance.

The test system of data set [1] is cells of the A549 human line (non-small-cell lung cancer). The data set is described as follows: Cytotoxicity test: inhibition of growth of A549 cells (ATP-Lite luminescence). The class given is cell-based. The note with it: 48 hours incubation. As for the experimental part:
The test used is the inhibition of growth of cells of the A549 human line (non-small-cell lung cancer):
The A549 tumour cells are seeded in a 96-well plate in RPMI 1640 medium without phenol red (Seromed) to which 5% of foetal calf serum is added (100 μl/well, 125×10^4 cells/ml). After incubating at 37° C. for 24 hours in an incubator comprising 5% CO2, the medium is replaced with that comprising the test compound, after which the plates are incubated for an additional 48 hours. Cell survival is evaluated by measuring the luminescence after release of ATP into the medium using the cell lysis, luciferase and luciferin solutions present in the ATP-Lite-M™ kit as is recommended by the manufacturer (Packard, Rungis, France). Each experimental condition was tested at least three times as six identical copies. The results, expressed as IC50 (M), are collated in Table I and show the cytotoxicity of the compounds.

The test system of the next data set is DNA in A549 cells. Nature of the data set: Comets test for detection of breakages of the DNA in cellulo. The data set is classed as cell-based, human. Particulars: 1 hour with 10 μM compound. The procedure: b) Test for Detection of Breakages of the DNA in Cellulo:
The comets test is used. The breakages of the DNA are detected in the A549 cells after incubating for 1 hour with 10 μM of each of the test compounds. […] For each compound, twenty-five cells are analysed and the mean Tail Moment (TM) is calculated using Komet software (Kinetic Imaging, UK).

Data set [2] in a line: Solubility in water of the hydrochloride. Particulars: water-soluble hydrochloride. The data set is classed as physicochemical. The source says:
The compounds of the present invention have a solubility in water which makes possible a form of administration by infusion, by injection or by the oral route. They are provided in the form of their water-soluble hydrochloride, the solubility values of which are collated in Table II.

For another data set, the system named is P388 murine leukaemia. The data set is described as follows: P388 experimental tumour model (survival). The class given is in vivo, mouse. The note with it: CD2F1 mice, P388 i.v. day 0, single intraperitoneal injection day 1; optimum dose (mg/kg) in brackets. As for the experimental part: The model used is P388 murine leukaemia (Tumor Models in Cancer Research., Teicher, B. A. ed., Humana Press Inc., Totowa, N.J., pp. 23-40, 2002), which is maintained by successive intraperitoneal transplantations in DBA/2 mice (DBA/2JIco, Charles River), as was described in prior art documents (Classic in vivo cancer models: Three examples of mouse models used in experimental therapeutics. Current Protocols in Pharmacology Unit 5.24: 5.24.1-5.24.16, 2001).
The experiment is carried out according to a protocol already described in prior art documents (Cancer Chemother. Pharmacol., 1998, 41, 437-447). This consists in implanting 10^6 cells of P388 leukaemia per mouse into C2DF1 hybrid mice (CD2F1/CrlBR, Charles River, St Aubin-les-Elbeuf, France) intravenously on day zero. After randomizing the animals in the treatment and control cages, the compounds to be evaluated are administered in a single injection intraperitoneally the day after the tumour graft, on day 1. The animals are subsequently monitored every day, weighed twice weekly and any clinical reaction is recorded. The survival is the parameter for evaluation of the antitumour activity. The increase in survival is defined by the T/Csurvival ratio (%), corresponding to: (Median of survival of the treated group/Median of survival of the control group)×100. A T/Csurvival ratio is calculated for each dose administered and the greatest value obtained represents the maximum increase in survival achieved (maximum activity), which is defined by the optimum T/Csurvival ratio. The results are illustrated in Table II, in which the optimum T/Csurvival values appear. […] Specifically, according to the criteria of the NCI (National Cancer Institute), a T/Csurvival value is regarded as significant if it is at least greater than 120% (Semin. Oncol., 1981, 8, 349-361). The relative loss in body weight of the animals, associated with the optimum activity of the compounds, is much less than the toxicity threshold, according to the criteria of the NCI (Ann. Oncol., 1994, 5, 415-422).

Data set [3] has as its system MX-1 human mammary carcinoma. The data set is described as follows: MX-1 experimental tumour model (tumour volume). The class given is in vivo, mouse. The source says: The model used is a human mammary carcinoma (Developmental Therapeutics Program, Division of Cancer Treatment, National Cancer Institute, In vivo Cancer Models 1976-1982. NIH Publication No. 84 2635, Washington D.C.: United States Government Printing Office, 1984), which is maintained by successive subcutaneous transplantations in Swiss Nude mice (Ico: Swiss-nu/nu, Iffa Credo, L'Arbresle, France), as was described above (Classic in vivo cancer models: Three examples of mouse models used in experimental therapeutics. Current Protocols in Pharmacology Unit 5.24: 5.24.1-5.24.16, 2001).
The experiment is carried out according to a protocol already described above (Cancer Chemother. Pharmacol., 1998, 41, 437-447). […] After randomizing the animals in their treatment and control cages, the compounds to be evaluated are administered intraperitoneally on day 7, 9, 11, 14, 16 and 18 after the grafting of the tumour. The animals are subsequently monitored every day, weighed twice weekly and any clinical reaction is recorded. The size of the tumour is measured three times weekly during the experiment. The tumour volume is calculated and the activity of the compounds on the size of the tumour is defined by the T/Cvolume ratio (%), corresponding to (Median tumour volume of the treated group/Median tumour volume of the control group)×100.

The subject of the next data set is B16 melanoma. The data set is described as follows: B16 experimental tumour model (tumour volume). The class given is in vivo, mouse. The note with it: C57BL/6 mice, s.c. B16, intraperitoneal on days 3, 5, 7 and 10; dose (mg/kg) in brackets. As for the experimental part: The model used is the B16 melanoma (Tumor Models in Cancer Research., Teicher, B. A. ed., Humana Press Inc., Totowa, N.J., pp. 23-40, 2002), which is maintained by successive subcutaneous transplantations in C57BL/6 mice (C57BL/6 NCrlBR, Charles River, St Aubin-les-Elbeuf, France), as was described above (Classic in vivo cancer models: Three examples of mouse models used in experimental therapeutics. Current Protocols in Pharmacology Unit 5.24: 5.24.1-5.24.16, 2001).
The experiment is carried out according to a protocol already described above. B16 tumour tissue is ground and homogenized in a 0.9% sterile sodium chloride solution using a Dounce homogenizer and then C57BLJ6 mice are inoculated subcutaneously into the flank with 0.5 ml of this 1 g/ml preparation on day zero. After randomizing the animals in the treatment and control cages, the compounds to be evaluated are administered intraperitoneally on days 3, 5, 7 and 10 after the grafting of the tumour. The animals are subsequently monitored every day, weighed twice weekly and any clinical reaction is recorded. The size of the tumour is measured three times weekly during the experiment. The tumour volume is calculated and the activity of the compounds on the size of the tumour is defined by the T/Cvolume ratio (%), corresponding to (Median tumour volume of the treated group/Median tumour volume of the control group)×100. […]

The compound `COc1cc(C2c3cc4c(cc3C(NC(=O)CN3CCCCC3)C3COC(=O)C23)OCO4)cc(OC)c1O` (stereo not drawn) (as salt: hydrochloride) registered a melting point of 269 to 270 °C.

Compound `COc1cc(C2c3cc4c(cc3C(NC(=O)CNCCCNCCCCNCCCN)C3COC(=O)C23)OCO4)cc(OC)c1O` (stereo not drawn) [Example 27, 2-{3-[4-(3-aminopropylamino)butylamino]propylamino}-N-[9-(4-hydroxy-3,5-dimethoxyphenyl)-8-oxo-5,5a,6,8,8a,9-hexahydrofuro[3′,4′:6,7]naphtho[2,3-d][1,3]dioxol-5-yl]acetamide] yielded a half-inhibitory concentration (IC50) in data set [1] (Homo sapiens) of 200 nM. Further, in the data set on DNA in A549 cells, the “TM (mean Tail Moment with respect to the TM of etoposide, taken to be unity)” value (from here on “TM”) is 1.22. Besides, the solubility in data set [2] came to 50 mg/mL (≈ 77.9 mM). The “P388 Model Optimum T/Csurvival (%)” value with P388 murine leukaemia is 129 [7.5] %. Also, the “effect on the tumour (in words)” value in data set [3] (MX-1, treatment of 2.5 mg/kg) is “complete eradication of the tumour”.

Compound `CCC1=C[C@@H]2CN(C1)Cc1c([nH]c3ccccc13)[C@@](C(=O)OC)(c1cc3c(cc1OC)N(C)[C@H]1[C@@](O)(C(=O)OC)[C@H](OC(C)=O)[C@]4(CC)C=CCN5CC[C@]31[C@@H]54)C2` [Vinorelbine, reference compound] displayed a 50% inhibitory concentration (IC50) in data set [1] (Homo sapiens) of 3.7 nM. Further, in the data set on DNA in A549 cells, the “TM” value amounted to 0.

In the case of `COc1cc(C2c3cc4c(cc3C(NC(=O)CNCCCNCCCCN)C3COC(=O)C23)OCO4)cc(OC)c1O` (stereo not drawn) (as salt: hydrochloride) [Example 31, 2-[3-(4-aminobutylamino)propylamino]-N-[9-(4-hydroxy-3,5-dimethoxyphenyl)-8-oxo-5,5a,6,8,8a,9-hexahydrofuro[3′,4′:6,7]naphtho[2,3-d][1,3]dioxol-5-yl]acetamide], the melting point came out at 255 °C.

`COc1cc(C2c3cc4c(cc3C(NC(=O)CNCCN)C3COC(=O)C23)OCO4)cc(OC)c1O` (stereo not drawn) (as salt: hydrochloride) yielded a melting point of 236 °C.

Consider `COc1cc(C2c3cc4c(cc3C(NC(=O)CNCCCCN)C3COC(=O)C23)OCO4)cc(OC)c1O` (stereo not drawn) [Example 25, 2-(4-aminobutylamino)-N-[9-(4-hydroxy-3,5-dimethoxyphenyl)-8-oxo-5,5a,6,8,8a,9-hexahydrofuro[3′,4′:6,7]naphtho[2,3-d][1,3]dioxol-5-yl]acetamide], for which it took 80 nM to reach half-maximal inhibition in data set [1] (Homo sapiens) (IC50). In addition, the “TM” value with DNA in A549 cells is recorded as 1.09. The compound further returned a solubility in data set [2] of 100 mg/mL (≈ 190 mM). Moreover, the “P388 Model Optimum T/Csurvival (%)” value with P388 murine leukaemia was 129 [10] %. Further, in the data set with B16 melanoma, the “B16 Model Optimum T/Cvolume (%)” value is 25% and 25 [20] %. Besides, the “MX-1 Model Optimum T/Cvolume (%)” value in data set [3] (Swiss Nude mice, s.c. MX-1, intraperitoneal on day 7, 9, 11, 14, 16 and 18, dose (mg/kg) in brackets) is 51% and 51 [10] %.

Turning to `COc1cc(C2c3cc4c(cc3C(NC(=O)CNCCN(C)C)C3COC(=O)C23)OCO4)cc(OC)c1O` (stereo not drawn) [Example 9, 2-(2-dimethylaminoethylamino)-N-[9-(4-hydroxy-3,5-dimethoxyphenyl)-8-oxo-5,5a,6,8,8a,9-hexahydrofuro[3′,4′:6,7]naphtho[2,3-d][1,3]dioxol-5-yl]acetamide], the IC50 in data set [1] (Homo sapiens) was found to be 6000 nM. In addition, the “TM” value in the data set with DNA in A549 cells is 2.81. The solubility in data set [2] came to 100 mg/mL (≈ 190 mM). Also, the “P388 Model Optimum T/Csurvival (%)” value in the data set on P388 murine leukaemia is 157 [10] %.

For `COc1cc(C2c3cc4c(cc3C(NC(=O)CN(C)C)C3COC(=O)C23)OCO4)cc(OC)c1O` (stereo not drawn) [Example 12, 2-dlmethylamino-N-[9-(4-hydroxy-3,5-dimethoxyphenyl)-8-oxo-5,5a,6,8,8a,9-hexahydrofuro[3′,4′:6,7]naphtho[2,3-d][1,3]dioxol-5-yl]acetamide], in data set [1], half-maximal inhibition (IC50) required 200 nM. In addition, the “TM” value with DNA in A549 cells was determined as 2.32. Also, in data set [2], the “Solubility in water” value stood at 16 mg/mL (≈ 33 mM). Besides, in the data set with P388 murine leukaemia, the “P388 Model Optimum T/Csurvival (%)” value was 157 [2.5] %.

Turning to `COc1cc(C2c3cc4c(cc3C(NC(=O)CNCCCNCCCCNCCCN)C3COC(=O)C23)OCO4)cc(OC)c1OC` (stereo not drawn) (as salt: hydrochloride), the melting point worked out at 209 °C.

`COc1cc(C2c3cc4c(cc3C(NC(=O)CN)C3COC(=O)C23)OCO4)cc(OC)c1O` (stereo not drawn) [Example 22, 2-amino-N-[9-(4-hydroxy-3,5-dimethoxyphenyl)-8-oxo-5,5a,6,8,8a,9-hexahydrofuro[3′,4′:6,7]naphtho[2,3-d][1,3]dioxol-5-yl]acetamide]: in data set [1] (Homo sapiens), the IC50 is 1000 nM. Further, in the data set on DNA in A549 cells, the “TM” value was 3.89.

`COc1cc(C2c3cc4c(cc3C(NC(=O)CN)C3COC(=O)C23)OCO4)cc(OC)c1O` (stereo not drawn) (as salt: hydrochloride) [Example 22, 2-amino-N-[9-(4-hydroxy-3,5-dimethoxyphenyl)-8-oxo-5,5a,6,8,8a,9-hexahydrofuro[3′,4′:6,7]naphtho[2,3-d][1,3]dioxol-5-yl]acetamide] had a melting point of 236 °C.

Consider `COc1cc(C2c3cc4c(cc3C(NC(=O)CNCCCCNCCCN)C3COC(=O)C23)OCO4)cc(OC)c1O` (stereo not drawn) (as salt: hydrochloride), for which the melting point was 199 °C.

As for `COc1cc(C2c3cc4c(cc3C(NC(=O)CNCCCN)C3COC(=O)C23)OCO4)cc(OC)c1O` (stereo not drawn) (as salt: hydrochloride), the melting point turned out to be 219 °C.
